Test results taken from PMC4438668, “Quantitative High-Throughput Identification of Drugs as Modulators of Human Constitutive Androstane Receptor” (Scientific Reports, 2015).

Assays:
[1] = molecular target: T1, EYFP-hCAR (Homo sapiens, UniProt Q14994); assay: Nuclear translocation of Ad/EYFP-hCAR in human primary hepatocytes; type: cell-based; conditions: HPH, 1 mM
T1 construct: expressed in transfected cells; host or cells: human primary hepatocytes infected with Ad/EYFP-hCAR
T1 sequence (Q14994 1-348 isoform Q14994-2): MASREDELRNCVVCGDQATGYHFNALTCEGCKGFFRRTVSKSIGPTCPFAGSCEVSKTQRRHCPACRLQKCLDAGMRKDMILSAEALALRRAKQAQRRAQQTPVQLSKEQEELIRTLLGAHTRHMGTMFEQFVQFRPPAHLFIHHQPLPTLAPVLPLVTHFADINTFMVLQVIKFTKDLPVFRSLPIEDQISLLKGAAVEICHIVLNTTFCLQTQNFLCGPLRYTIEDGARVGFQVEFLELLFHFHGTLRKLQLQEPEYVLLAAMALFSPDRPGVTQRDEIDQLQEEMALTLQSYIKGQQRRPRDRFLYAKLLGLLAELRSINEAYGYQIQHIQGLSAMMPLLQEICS
Method: A recombinant adenovirus expressing enhanced yellow fluorescent protein-tagged hCAR (Ad/EYFP-hCAR) was generated as described previously. Hepatocytes cultured in 96-well collagen-coated plates in serum free Williams’ E medium were infected with Ad/EFYP-hCAR (1 μl/well) for 12 h before treatment with the vehicle control, DMSO (0.1%), PB (1 mM), and selected compounds for another 8 h. Subcellular localization of hCAR was visualized using a Nikon (Tokyo, Japan) C1-LU3 instrument based on an inverted Nikon Eclipse TE2000 microscope.

[2] = molecular target: T2, human CAR (hCAR) (Homo sapiens, UniProt Q14994); assay: hCAR luciferase reporter qHTS, agonist mode (HepG2-CYP2B6-hCAR cells, PK11195 co-treatment); conditions: for EC50 / Follow-up Confirmation Efficacy / Primary Screen Efficacy: agonist mode; for Follow-up Confirmation Efficacy: relative to CITCO (100%); for Primary Screen Efficacy: relative to CITCO Emax (100%); for Identified as hCAR agonist in the qHTS: primary qHTS of 2816 NPC compounds
T2 sequence (Q14994 1-348 isoform Q14994-2): T1 sequence (Q14994 1-348 isoform Q14994-2)
Method: The generated stable cell line, namely HepG2-CYP2B6-hCAR, was used to identify hCAR modulators in a qHTS platform. Assays were run in both agonist and antagonist modes. In brief, HepG2-CYP2B6-hCAR cells were dispensed at 2,500 cells/well in 1,536-well plates (Greiner Bio-One North America, Monroe, NC) using a Multidrop Combi (Thermo Fisher Scientific Inc., Waltham, MA). […] Each NPC compound was tested at 8 concentrations ranging from 0.6 nM to 38.3 μM. The assays were incubated at 37 °C for 24 h followed by the addition of 4 μl of the ONE-Glo luciferase reagent (Promega, Madision, WI). The assay plates were incubated at room temperature for 20 min and luminescence intensity was quantified using a ViewLux plate reader (PerkinElmer, Shelton, CT).
(§1) Concentration-response titration points for each compound were then fitted to the Hill equation, yielding half-maximal inhibition (IC50) or activation (EC50) and maximal response (efficacy) values. Compounds from the primary qHTS screen were classified into four major curve classes according to quality of curve fit, potency and efficacy. Class 1.1, 1.2, 2.1, and 2.2 curves were high-quality and thus high-confidence concentration-response curves (CRCs). […] All other curve classes (including those curves with single point activity) were deemed inconclusive. […] Follow-up studies were performed using a new aliquot of samples to confirm sample integrity and assay reproducibility.
These compounds were prepared in 1536-well compound plates at 11-point 3-fold dilution titrations in DMSO, with final concentrations ranging from 0.6 nM to 38.3 μM. All of these compounds were retested in both HepG2-CYP2B6-hCAR and cell viability assays.

[3] = molecular target: T2, human CAR (hCAR); assay: hCAR luciferase reporter qHTS, antagonist mode (HepG2-CYP2B6-hCAR cells, CITCO co-treatment); conditions: for Identified as hCAR antagonist/deactivator in the qHTS: primary qHTS of 2816 NPC compounds;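 for all read-outs here: stable HepG2 line carrying hCAR plus a CYP2B6 promoter (PBREM/XREM) luciferase reporter, 1536-well format, 24 h compound exposure at 37 °C, then luminescence read with ONE-Glo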
Method: The pEF6/V5-hCAR expression plasmid and the pGL4.17[luc2/Neo]-CYP2B6-2.2kb construct containing both the PBREM and XREM[40], were co-transfected in HepG2 cells using lipofectamine 2000 reagents (Life Technologies) following the manufacturer’s instruction. Dulbecco’s Modified Eagle Medium (DMEM) containing 10% FBS, 100 U/ml penicillin, 100 μg/ml streptomycin, G418 (0.6-1 mg/ml) and blasticidin (10 μg/ml) were used for the selection of colonies containing a mixed population of drug resistant cells. Subsequently, these cells were transferred to collagen-coated 48-well plates and continually cultured in the same media. Single colony containing both plasmids was selected and functionally verified.
The generated stable cell line, namely HepG2-CYP2B6-hCAR, was used to identify hCAR modulators in a qHTS platform. Assays were run in both agonist and antagonist modes. In brief, HepG2-CYP2B6-hCAR cells were dispensed at 2,500 cells/well in 1,536-well plates (Greiner Bio-One North America, Monroe, NC) using a Multidrop Combi (Thermo Fisher Scientific Inc., Waltham, MA). […] The assays were incubated at 37 °C for 24 h followed by the addition of 4 μl of the ONE-Glo luciferase reagent (Promega, Madision, WI). The assay plates were incubated at room temperature for 20 min and luminescence intensity was quantified using a ViewLux plate reader (PerkinElmer, Shelton, CT).
as §1
All of these compounds were retested in both HepG2-CYP2B6-hCAR and cell viability assays.

[4] = tested on: CYP3A4; assay: CYP3A4 mRNA expression in HPH (real-time PCR); type: cell-based, human; conditions: HPH, 24 h, vs vehicle control (0.1% DMSO)
Method: (§2) HPH were isolated from human liver specimens by a modification of the two-step collagenase digestion method as described previously[43] or obtained from Bioreclamation In Vitro Technologies (Baltimore, MD). Fresh HPH were seeded at 1.5 × 10^6, 7.5 × 10^5 or 4.7 × 10^4 cells/well in 6-well, 12-well, or 96-well collagen coated plates, respectively. Hepatocytes were cultured for 36 h at 37 °C before treatment with specified compounds for another 24 or 72 h for detection of mRNA or protein expression in the 6-well and 12-well plates.
(§3) Total RNA was isolated from treated hepatocytes using the TRIzol® reagent and reverse transcribed using a High Capacity cDNA Archive Kit (Applied Biosystems, Foster City, CA) following the manufacturers’ instructions. CYP2B6 and CYP3A4 mRNA expression were normalized against that of GAPDH. Real-time PCR assays were performed in 96-well optical plates on an ABI Prism 7000 Sequence Detection System with SYBR Green PCR Master Mix. […] Induction values were calculated using the equation: Fold = 2ΔΔCt, where ΔCt represents the differences in cycle threshold numbers between CYP2B6 or CYP3A4 and GAPDH, and ΔΔCt represents the relative change in these differences between control and treatment groups.

[5] = tested on: HepG2-CYP2B6-hCAR cells; assay: Cell viability assay (CellTiter-Glo ATP quantitation); type: cell-based, human; design: key to Cytotoxicity (activity call): Inactive: considered inactive if efficacy is less than 30%; conditions: 24 h
Method: The potential cytotoxicity of the NPC compounds in HepG2-CYP2B6-hCAR cells was measured using a luciferase-coupled ATP quantitation assay (CellTiter-Glo viability assay, Promega). The change of intracellular ATP content indicates the number of metabolically competent cells. The cells were seeded at 2,500 cells/5 μl in 1536-well plates and were exposed to each test compound at concentrations and treatment duration as previously mentioned. The assay plates were incubated for 24 h at 37 °C, followed by the addition of 4 μl/well of CellTiter-Glo reagent. After 30 min incubation at RT, the luminescence intensity of the plates was measured using a ViewLux plate reader.

[6] = molecular target: T3, hPXR (Homo sapiens, UniProt O75469); assay: Transient hPXR luciferase assay in HepG2 cells (CYP2B6-2.2 kb reporter); type: cell-based; conditions: HepG2, 24 h, in the presence or absence of rifampicin (10 μM)
T3 construct: expressed in transfected cells; host or cells: HepG2 (transient transfection)
T3 sequence (O75469 1-434): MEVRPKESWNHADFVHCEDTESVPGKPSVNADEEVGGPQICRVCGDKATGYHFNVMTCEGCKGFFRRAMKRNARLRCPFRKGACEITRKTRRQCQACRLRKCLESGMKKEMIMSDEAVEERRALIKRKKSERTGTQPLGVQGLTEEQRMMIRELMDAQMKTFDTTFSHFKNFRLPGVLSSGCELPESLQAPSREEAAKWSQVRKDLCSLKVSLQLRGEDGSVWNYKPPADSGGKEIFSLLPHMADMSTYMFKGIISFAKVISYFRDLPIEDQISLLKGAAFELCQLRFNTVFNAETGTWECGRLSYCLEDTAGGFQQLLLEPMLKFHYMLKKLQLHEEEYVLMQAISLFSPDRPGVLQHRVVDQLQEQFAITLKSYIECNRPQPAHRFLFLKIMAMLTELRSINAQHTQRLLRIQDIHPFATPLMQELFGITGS
Method: HepG2 cells cultured in a 24-well plate were co-transfected with the CYP2B6-2.2 kb reporter and hPXR expression vectors using a Lipofectamine® 2000 Transfection Kit (Life Technologies) following the manufacturer’s instruction. […] Cell lysates were assayed for firefly luciferase activities normalized against the activities of co-transfected Renilla luciferase using a Dual-Luciferase Kit (Promega). Data were represented as mean±SD of three individual transfections.

[7] = tested on: CYP2B6; assay: CYP2B6 mRNA expression in HPH (real-time PCR); conditions: HPH, 24 h, vs vehicle control (0.1% DMSO)
Method: as §2, §3

[8] = Follow-up Confirmation Potency (EC50), follow-up cherry-pick, 11-point titration
[9] = Primary Screen Potency (EC50), primary qHTS, 2.5 μM PK11195, 24 h
[10] = Follow-up Confirmation Potency (IC50), antagonist mode, follow-up cherry-pick, 11-point titration
[11] = Primary Screen Potency (IC50), antagonist mode, primary qHTS, 0.1 μM CITCO, 24 h
[12] = antagonist mode, follow-up cherry-pick, relative to PK11195 (100%)

Structure (SMILES): CCC1(c2ccccc2)C(=O)NC(=O)NC1=O [PB, phenobarbital]
- Nuclear localization of EYFP-hCAR [1]: 99%

Structure (SMILES): CC(COc1ccccc1)N(CCCl)Cc1ccccc1 (centres unmarked) [Phenoxybenzamine]
- EC50 [2, 8]: 12 µM
- EC50 [2, 9]: 9.5 µM
- Follow-up Confirmation Efficacy ([2]; follow-up cherry-pick): 49%
- Primary Screen Efficacy ([2]; primary qHTS): 57%

Structure (SMILES): CC[C@@]1(O)C(=O)OCc2c1cc1n(c2=O)Cc2cc3c(CN(C)C)c(O)ccc3nc2-1 [Topotecan]
- IC50 [3, 10]: 360 nM
- IC50 [3, 11]: 60 nM
- Follow-up Confirmation Efficacy [3, 12]: -109%
- Primary Screen Efficacy ([3]; antagonist mode, primary qHTS, relative to PK11195 (100%)): -94%
- Effect on CYP3A4 mRNA expression [4]: negligible effect
- Cytotoxicity (activity call) [5]: Inactive

Structure (SMILES): CCCCNc1c(C(=O)OCC)c(C)nc2c1cnn2CC [Tracazolate]
- EC50 [2, 8]: 24 µM
- EC50 [2, 9]: 17 µM
- Follow-up Confirmation Efficacy ([2]; follow-up cherry-pick): 101%
- Primary Screen Efficacy ([2]; primary qHTS): 27%

Structure (SMILES): O=c1[nH]c(=O)n([C@H]2C[C@H](O)[C@@H](CO)O2)cc1C(F)(F)F [Trifluridine]
- Effect on basal and RIF-induced PXR activity [6]: no effects on either basal or RIF-induced hPXR activation
- Effect on CYP2B6 mRNA expression [7]: moderately induced
- IC50 [3, 10]: 4500 nM
- IC50 [3, 11]: 6700 nM
- Follow-up Confirmation Efficacy [3, 12]: -73%
- Cytotoxicity (activity call) [5]: Inactive

Structure (SMILES): Clc1ccc(Nc2nnc(Cc3ccncc3)c3ccccc23)cc1 [Vatalanib]
- EC50 [2, 8]: 12.6 µM
- EC50 [2, 9]: 10.7 µM
- Follow-up Confirmation Efficacy ([2]; follow-up cherry-pick): 97%
- Primary Screen Efficacy ([2]; primary qHTS): 68%
- Effect on CYP2B6 mRNA expression [7]: significantly induced
- Effect on CYP3A4 mRNA expression [4]: markedly enhanced

Structure (SMILES): Clc1ccccc1C(c1ccccc1)(c1ccccc1)n1ccnc1 [clotrimazole]
- Identified as hCAR antagonist/deactivator in the qHTS [3]: recognized in the current study

Structure (SMILES): COC(=O)Nc1nc2ccc(C(=O)c3cccs3)cc2[nH]1 [nocodazole]
- Identified as hCAR agonist in the qHTS [2]: hCAR agonist from the current study

Structure (SMILES): O=C1OC(c2ccc(O)cc2)(c2ccc(O)cc2)c2ccccc21 [phenolphthalein]
- Identified as hCAR antagonist/deactivator in the qHTS [3]: recognized in the current study

Structure (SMILES): Cc1cccc(N(C)C(=S)Oc2ccc3ccccc3c2)c1 [tolnaftate]
- Identified as hCAR agonist in the qHTS [2]: agonists identified

Structure (SMILES): O=C(Nc1ccc(Cl)cc1)Nc1ccc(Cl)c(Cl)c1 [triclocarban]
- Identified as hCAR agonist in the qHTS [2]: agonists identified
